Test results reported in US6852708B2, “Use of hyaluronic acid and forms to prevent the narrowing of the vascular walls” (Jagotec AG, priority 1991, dated 2005).
Several values for one entry are separate records, joined by “and”; a condition that tells them apart may be missing. Equal entries are not always repeated.

Legend:
[1] = test system: macrophage cell line WEHI-3; assay: Chemotaxis of macrophage cell line WEHI-3 to endotoxin-activated mouse serum (complement); assay type: cell-based; details: peptide 2 μg/mL; FIG. 11
Experimental: (§1) The HA-binding region of RHAMM consists of two 10 amino acid domains located close to the carboxy terminus of the protein^15. A peptide mimicking Domain I (amino acides^401-411)—[…]—and a scrambled peptide consisting of the same amino acids arranged in a random manner-———-were synthesized at the Manitoba Institute of Cell Biology. Both peptides were used at a final concentration of 2 μg/mL in locomotion assays.
(§2) The macrophage cell lines S1 and WEHI-3 were used to analyze the effect of antibodies and synthetic peptide on macrophage chemotaxis to endotoxin-activated mouse serum (AS). These cell lines were also maintained in DME with 10% FCS and 20 mM Hepes buffer, pH 7.2 at 37° C. and 5% CO2 in air.
(§3) Chemotaxis was stimulated using either bacterial endotoxin-activated mouse serum (AS), prepared according to Stevenson et al.^18 for macrophage cell lines, or 100 ng/mL interleukin-8 (IL-8) for meutrophils. Heat-inactivated serum (56° C. for 20 minutes) or medium served as negative controls respectively. […] The number of displaced cells was quantified by the addition of 3-(4.5-dimethylthiazol-2-yl)-2.5-[…] tetrazolium bromide (MTT) to a final concentration of 250 μg/mL that was incubated at 37° C. for 4 hours. […] The plate was analyzed within 2 hours on a microtiter plate ELISA reader with a filter of 540 nm. […]

Human neutrophils = assay: Chemotaxis of neutrophils to IL-8; assay type: cell-based; details: 100 ng/mL IL-8; peptide 2 μg/mL; FIG. 10
Experimental: as §1
Human neutrophils were obtained from peripheral blood samples of normal volunteers and mixed in ACD solution (0.085) M trisodium citrate, 0.065 M citric acid, 2% Dextrose) to prevent clotting. 5% Dextran was added and the separated plasma and white blood cells were removed. The cells were washed twice in PBS, pH 7.2 and a Ficoll gradient was used to separate the lymphocytes. The isolated neutrophils were then washed and resuspended in PBS. […]
as §3, with “meutrophils.” for “meutrophils. Heat-inactivated serum (56° C. for 20 minutes) or medium served as negative controls respectively.”

macrophage cell line S1 = assay: Chemotaxis of macrophage cell line S1 to endotoxin-activated mouse serum (complement); assay type: cell-based; details: peptide 2 μg/mL; FIG. 11
Experimental: as §1, §2, §3

[2] = test system: smooth muscle cells isolated from bovine aorta; assay: Smooth muscle cell migration after wounding of monolayers (timelapse cinemicrography); assay type: cell-based
Experimental: as §1
Smooth muscles cells were isolated from bovine aorta as described previously for rate aorta^17 and were maintained in Dulbecco's Modified Eagles medium (DME) supplemented with 10% fetal calf serum (FCS) and 20 mM Hepes buffer, pH 7.2 at 37° C. and 5% CO2 in air. All experiments were performed using defined medium [DM, Dulbecco's Modified Eagles medium with 20 mM HEPES buffer, pH 7.2, 0.5 U/mL insulin (beef and pork zinc suspension, Novo Laboratories Ltd., Willowdale, Ontario) and 4 μg/mL transferrin (Sigma Chemical Co., St. Louis, Mo.)], and the culture medium was replaced 24 hours before filming. […]
Injured cell monlayers were monitored for motility using an 1 M 35 Zeiss inverted microscope to which a video camera (Hamamatsu CCD, Inc., Japan) was attached. […] This program allows quantification of nuclear displacement from a sequence of digitalized images. The motility of thirty cells in each experiment was followed for a period of 24 hours with mean velocities calculated every hour.

[3] = test system: balloon catheter injured common carotid artery; assay: Balloon catheter injury of the common carotid artery in cholesterol-fed rabbits, hyaluronan i.v. bolus then daily s.c.; assay type: in vivo, New Zealand White rabbit; details: for reduction in mean intimal macrophage content: versus cholesterol-diet alone, p<0.02; for reduction of the absolute neo-intimal response to injury (absolute size of the neo-intima): versus cholesterol-fed group given saline, p<0.05, 15 mg/kg/day
Source text: Juvenile New Zealand White rabbits (3 to 6 months old), weighing approximately 2.5 kg were obtained from Rosemead Rabbit Co. Essex, UK) and housed in the Biological Services Unit of St. bartholomew's Hospital Medical College, London.
After one week on a commercial rabbit chow diet (Scientific Diet Services, Essex, UK) the animals were started on a 2% cholesterol diet (Scientific Diet Services, Essex, UK). Water was allowed ad libitum.
One week after starting the above diet, animals were anaesthetized with intramuscular xylazine [Rompun (Bayer, Suffolk, UK); 40 mg/kg] and ketamine [Vetalar (Parke-Davis, UK); 10 mg/kg]. The left carotid bifurcation was exposed through a paramedian incision, and the external carotid artery prepared for balloon injury. The animals were injected with a bolus of sterile sodium hyaluronate (15 mg/kg) referred to at page 15, line 31 to page 16 line 1 (Hyal Pharmaceutical Corporation, Ontario, Canada) or saline via a marginal ear vein. Endothelium was then removed from the entire left common carotid artery by the passage of an inflated 2F French Fogarty Embolectomy catheter as previously described (Ferns et al 1992). The catheter was then withdrawn, the external carotid tied off, and the skin and deep fascia closed with chromic catgut and discontinuous 3-O silk. The validity of the procedure for endothelial cell denudation was assessed by scanning electron microscopy of a number of carotids from animals killed immediately post-operatively. Animals received a further subcutaneous injection of hyaluronic acid (15 mg/kg) or saline post-operatively, and daily until sacrifice.
Blood for serum cholesterol was collected from each animal before the start of each experimental diet, peri-operatively and at the time of sacrifice. Samples were separated by centrifugation and stored at −20° C. prior to analysis.
Two weeks after carotid de-endothelialization, the animals were sedated with intramuscular xylazine and ketamine and given an intravenous injection of 2% Evans blue in isotonic phosphate-buffered saline. Five minutes later, an abdominal incision was made to access the abdominal aorta for insertion of a cannula connected to a perfusion apparatus, and both jugular veins exposed for perfusion run-off. The animals were then killed by an overdose of anaesthetic and perfused with buffered saline at a rate of 100 ml/minute/kg body weight. When the run-off was clear, the saline was replaced with 4% paraformaldehyde in isotonic PBS at the same flow rate. Perfusion was continued for 15 minutes. After fixation in situ, the denuded and contralateral carotids were dissected free and cleaned of adherent fat and fascia. The segments were immediately rinsed in PBS and placed in fresh 4% paraformaldehyde overnight for paraffin embedding. Some segments were placed into 2.5% glutaraldehyde for subsequent processing for electron microscopy.
Five micron sections were taken from the blue (de-endothelialised) segments of carotid artery, for haematoxylin and eosin (H&E) staining. Adjacent sections were cut for elastin staining using Verhoeff-Van Geisen (VVG) stain, and immunostaining using monoclonal antibodies directed against rabbit alveolar macrophages (RAM-11) and smooth muscle cell actin (HHF-35), as described by Tsukada et al. (1986).
Serum cholesterol levels were measured by the CHOD-POD enzymatic-colorimetric method using a Cholesterol C-system kit (Boehringer Corp., Lewes, UK) and a Vitalab 100 autoanalyzer with Precipath U and Precinorm U (Boehringer Corp., Lewes, UK) quality control material.
The intimal and medial thickness of each segment was measured using a Zeiss Axioskop microscope equipped with a X10 Achroplan objective, a digitizing pad and an IBM 55SX PC containing a VIDS V interface card and VIDS V software. Measurements were performed in duplicate on three mid-carotid VVG stained sections. […]

injured carotid arteries = assay: Balloon angioplasty in rabbits perfused with hyaluronan, carotid artery histology; assay type: in vivo, rabbit; details: perfused with hyaluronan 5 mg/ml just prior to injury; for adherence / accumulation of white cells on the endothelium of the injured carotid artery: 2, 24, 48 hours after injury
Experimental: 10 rabbits were anesthetized and balloon angioplasty was performed on them. The rabbits were perfused with hyaluronan (5 mg/ml) or buffer alone and allowed their recover. […] Sections were stained with hematoxylin or with anti RHAMM antibodies. 10 sections of each treatment were analyzed.

[4] = test system: balloon angioplasty injured carotid artery; assay: Balloon angioplasty injury in cholesterol-fed rabbits, hyaluronan injections administered subcutaneously; assay type: in vivo, rabbit
Experimental: Tests were conducted with cholesterol-fed rabbits and the following was found. The tests were of the same nature except that the injections of the hyaluronan (sodium hyaluronate) were administered subcutaneously.

[5] = MEAN of HYAL + CHOL group, N=15, 2 weeks after injury
[6] = hyaluronan-treated group, 2 weeks after injury
[7] = individual animals of the HYAL + CHOL group, 2 weeks after injury
[8] = mean ± SEM, n=15, Hyal 15 mg/kg/d
[9] = HYAL + CHOL group, n=15, s.c. injections

YKQKIKHVVKLK [peptide aa^401-411]
chemotaxis of WEHI-3 to endotoxin-activated mouse serum [1]: inhibited
chemotaxis of neutrophils to IL-8 (Human neutrophils): significantly inhibited
chemotaxis of S1 to endotoxin-activated mouse serum (macrophage cell line S1): inhibited
locomotion of smooth muscle cells responding to injury ([2]; peptides 100 ng/plate, FIG. 6): inhibits
rate of translocation of smooth muscle cells following wounding of monolayers ([2]; peptides 2 μg/mL, 5 hours after wounding, FIG. 12): significantly reduced

sodium hyaluronate
intimal thickening in the cholesterol-fed rabbits ([3]; 15 mg/kg i.v. immediately pre-operatively, then daily s.c. for fourteen days): significantly inhibited
neo-intimal macrophage content in the cholesterol-fed rabbits ([3]; 15 mg/kg/d, 2 weeks after injury): reduced
mean medial thickness compared with the control animals ([3]; 2 weeks after injury, p>0.05): did not differ significantly
Body Weight, Sacrifice ([3]; MEAN of HYAL + CHOL group, N=15): 2.64 kg
I/M [3, 5]: 0.59
INTIMA [3, 5]: 65.79 microns
Intimal Macrophage Content (%) [3, 5]: 3.22%
MEDIA [3, 5]: 105.01 microns
Mean weight, Sacrifice ([3]; group mean ± SEM, n=15, at sacrifice, Hyal 15 mg/kg/d): 2.64 ± 0.09 kg
intima: media ratio [3, 6]: 0.59±0.011
mean intimal macrophage content [3, 6]: 3.22±1.05%
I/M [3, 7]: 0.68 and 1.10 and 0.21 and 0.42 and 0.46 and 0.30 and 1.03 and 0.66 and 0.24 and 1.61 and 0.81 and 0.10 and 0.72 and 0.08 and 0.45
INTIMA [3, 7]: 82.60 microns and 212.00 microns and 22.00 microns and 55.62 microns and 42.10 microns and 17.44 microns and 76.40 microns and 48.23 microns and 26.63 microns and 187.50 microns and 112.22 microns and 8.44 microns and 84.87 microns and 8.38 microns and 2.35 microns
Intimal Macrophage Content (%) [3, 7]: 6.90% and 13.20% and 3.10% and 5.50% and 0.17% and 1.10% and 0.40% (2×) and 0.00% (2×) and 1.70% and 7.80% and 0.50% and 4.70% and 2.90%
MEDIA [3, 7]: 118.90 microns and 200.00 microns and 109.00 microns and 139.14 microns and 91.10 microns and 78.28 microns and 74.70 microns and 74.65 microns and 111.50 microns and 118.72 microns and 143.77 microns and 83.43 microns and 120.62 microns and 105.57 microns and 5.81 microns
Body Weight, Sacrifice ([3]; individual animals of the HYAL + CHOL group, at sacrifice): 2.60 kg (2×) and 2.89 kg and 2.91 kg and 3.40 kg and 2.88 kg and 2.81 kg (2×) and 2.25 kg and 2.74 kg and 2.35 kg and 2.15 kg and 2.40 kg and 2.38 kg and 2.42 kg
Body Weight, Start ([3]; individual animals of the HYAL + CHOL group, before treatment): 2.25 kg
Mean Intimal thickness 2 weeks after injury [3, 8]: 0.068 ± 0.016 mm
Mean intima/media ratio 2 weeks after injury [3, 8]: 0.59 ± 0.11
Mean intimal macrophage content 2 weeks after injury (% of total cell number) [3, 8]: 3.22 ± 0.98%
gain in body weight over the three week experimental period ([3]; rabbit, in vivo): approximately 30%
reduction in mean intimal macrophage content ([3]; 2 weeks after injury, listed as Hyaluronan): 62%
reduction in mean intimal macrophage content ([3]; 2 weeks after injury, listed as hyaluronan): approximately 62%
reduction of the intima: media ratio ([3]; versus cholesterol-fed control group, 2 weeks after injury, 15 mg/kg/d): 35%
reduction of the absolute neo-intimal response to injury (absolute size of the neo-intima) ([3]; 2 weeks after injury, 15 mg/kg/d, listed as Hyaluronan): 42%
reduction of the absolute neo-intimal response to injury (absolute size of the neo-intima) ([3]; 2 weeks after injury, 15 mg/kg/d, listed as hyaluronan): approximately 46%
endothelial cell layer of the injured carotid artery (histology) (injured carotid arteries): intact endothelial cell layer
adherence / accumulation of white cells on the endothelium of the injured carotid artery (injured carotid arteries; listed as Hyaluronan): abolished
adherence / accumulation of white cells on the endothelium of the injured carotid artery (injured carotid arteries; listed as hyaluronan): do not exhibit accumulations of white cells
mean I:M ratio [4, 9]: 0.591
mean absolute intimal thickness [4, 9]: 95.7 μm
neo-intimal thickness following balloon angioplasty injury ([4]; cholesterol-fed rabbits, FIGS. 20 and 21): significantly inhibited
